Assay results as given in ChEMBL document CHEMBL1137615, “Discovery of orally efficacious tetracyclic metabotropic glutamate receptor 1 (mGluR1) antagonists for the treatment of chronic pain” (J Med Chem, 2007).

How the values were obtained:
[1] = target: Metabotropic glutamate receptor 1 (Rattus norvegicus, UniProt P23385); experiment: Displacement of [3H]9-Dimethylamino-3-(4-methoxy-phenyl)-3H-pyrido[3',2':4,5]thieno[3,2-d]pyrimidin-4-one from mGluR1 in rat cerebellum membrane; assay type: cell membranes
[2] = target: T1, Metabotropic glutamate receptor 5 (Homo sapiens, UniProt P41594); experiment: Displacement of radioligand from human mGluR5b expressed in HEK293 cells at 1 uM; assay type: cell-based
Target sequence in this assay (P41594 21-1212 limits assumed): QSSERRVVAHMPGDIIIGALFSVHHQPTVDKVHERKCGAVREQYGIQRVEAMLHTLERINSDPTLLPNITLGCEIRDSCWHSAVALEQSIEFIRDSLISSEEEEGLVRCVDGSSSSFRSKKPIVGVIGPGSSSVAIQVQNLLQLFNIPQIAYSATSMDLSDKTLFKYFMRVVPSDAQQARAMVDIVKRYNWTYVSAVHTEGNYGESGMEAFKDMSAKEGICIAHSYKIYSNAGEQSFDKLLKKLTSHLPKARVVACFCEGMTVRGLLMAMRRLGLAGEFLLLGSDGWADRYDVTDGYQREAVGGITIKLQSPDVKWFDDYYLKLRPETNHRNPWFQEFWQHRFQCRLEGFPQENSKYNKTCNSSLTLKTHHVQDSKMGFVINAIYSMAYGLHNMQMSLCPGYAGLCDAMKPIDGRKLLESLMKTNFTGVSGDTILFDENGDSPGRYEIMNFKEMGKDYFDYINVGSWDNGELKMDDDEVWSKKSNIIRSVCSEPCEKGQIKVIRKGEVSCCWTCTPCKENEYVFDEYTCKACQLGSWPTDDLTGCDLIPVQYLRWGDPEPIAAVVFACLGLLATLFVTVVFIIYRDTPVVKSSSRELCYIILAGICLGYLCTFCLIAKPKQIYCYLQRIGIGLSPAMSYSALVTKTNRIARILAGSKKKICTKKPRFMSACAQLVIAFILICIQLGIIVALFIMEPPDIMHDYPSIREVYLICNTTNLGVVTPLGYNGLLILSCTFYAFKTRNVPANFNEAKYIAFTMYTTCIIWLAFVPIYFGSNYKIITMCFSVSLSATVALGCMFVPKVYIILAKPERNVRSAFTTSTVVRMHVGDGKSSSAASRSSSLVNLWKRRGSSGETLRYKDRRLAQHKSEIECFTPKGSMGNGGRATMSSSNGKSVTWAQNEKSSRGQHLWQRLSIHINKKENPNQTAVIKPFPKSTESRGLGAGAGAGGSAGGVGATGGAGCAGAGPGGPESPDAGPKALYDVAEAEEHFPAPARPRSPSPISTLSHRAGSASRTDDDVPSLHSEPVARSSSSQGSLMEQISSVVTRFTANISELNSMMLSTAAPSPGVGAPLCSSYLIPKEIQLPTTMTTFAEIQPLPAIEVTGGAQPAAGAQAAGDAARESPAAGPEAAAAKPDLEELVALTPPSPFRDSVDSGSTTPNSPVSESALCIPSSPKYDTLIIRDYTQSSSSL

[3] = tested on: Rattus norvegicus; experiment: Effect on neuropathic pain in orally dosed SNL rat model; assay type: functional; conditions: po
[4] = tested on: Rattus norvegicus; experiment: Effect on neuropathic pain in SNL rat model assessed as paw withdrawal threshold at 10 mg/kg, po; assay type: functional
[5] = Tmax in rat at 10 mg/kg, po by CARRS; assay type: ADME, organism-based; parameters: dose 10 mg/kg, route oral; conditions: in vivo
[6] = AUC (0 to 6 hrs) in rat at 10 mg/kg, po by CARRS; assay type: ADME, organism-based; parameters: time < 6 hr, dose 10 mg/kg, route oral; conditions: plasma
[7] = tested on: Rattus norvegicus; experiment: Inhibition of neuropathic pain in SNL rat model at 10 mg/kg, po; assay type: functional
[8] = target: T1, Metabotropic glutamate receptor 5; experiment: Antagonist activity at human mGluR5b expressed in HEK293 cells assessed by measuring intracellular calcium by FLIPR assay; assay type: functional, cell-based
Target sequence in this assay (P41594 whole entry): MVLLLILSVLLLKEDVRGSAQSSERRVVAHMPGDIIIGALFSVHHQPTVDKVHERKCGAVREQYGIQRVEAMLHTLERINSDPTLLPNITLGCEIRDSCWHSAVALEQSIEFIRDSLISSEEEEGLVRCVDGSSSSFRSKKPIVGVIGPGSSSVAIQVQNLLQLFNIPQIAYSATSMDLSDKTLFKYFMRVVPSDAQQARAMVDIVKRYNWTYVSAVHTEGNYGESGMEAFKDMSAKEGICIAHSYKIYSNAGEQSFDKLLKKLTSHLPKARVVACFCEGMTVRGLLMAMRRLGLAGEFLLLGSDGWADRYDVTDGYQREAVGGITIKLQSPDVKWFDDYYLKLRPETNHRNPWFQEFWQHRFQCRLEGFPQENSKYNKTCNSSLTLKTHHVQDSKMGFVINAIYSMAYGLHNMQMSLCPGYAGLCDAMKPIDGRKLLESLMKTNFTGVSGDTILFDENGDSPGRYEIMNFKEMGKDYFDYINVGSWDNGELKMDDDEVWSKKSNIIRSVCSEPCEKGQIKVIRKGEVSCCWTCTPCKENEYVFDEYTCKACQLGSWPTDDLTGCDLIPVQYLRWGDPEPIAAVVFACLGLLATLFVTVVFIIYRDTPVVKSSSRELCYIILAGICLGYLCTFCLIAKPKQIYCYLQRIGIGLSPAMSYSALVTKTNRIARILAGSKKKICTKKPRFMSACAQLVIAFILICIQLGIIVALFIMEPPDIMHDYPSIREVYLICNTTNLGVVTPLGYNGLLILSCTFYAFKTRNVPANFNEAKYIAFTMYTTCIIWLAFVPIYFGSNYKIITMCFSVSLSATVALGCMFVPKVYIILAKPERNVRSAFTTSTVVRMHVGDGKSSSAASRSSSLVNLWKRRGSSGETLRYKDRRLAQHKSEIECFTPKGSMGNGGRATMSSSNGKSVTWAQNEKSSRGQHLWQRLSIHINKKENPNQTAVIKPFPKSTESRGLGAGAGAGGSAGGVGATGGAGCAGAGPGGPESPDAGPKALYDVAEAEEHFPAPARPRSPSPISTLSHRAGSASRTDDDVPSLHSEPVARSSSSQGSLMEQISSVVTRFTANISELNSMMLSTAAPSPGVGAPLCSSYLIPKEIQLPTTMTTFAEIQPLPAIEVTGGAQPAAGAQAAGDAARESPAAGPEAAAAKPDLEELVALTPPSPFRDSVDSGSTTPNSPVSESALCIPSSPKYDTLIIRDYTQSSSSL

[9] = Cmax in rat at 10 mg/kg, po by CARRS; assay type: ADME, organism-based; parameters: dose 10 mg/kg, route oral; conditions: in vivo
[10] = target: Metabotropic glutamate receptor 1 (Homo sapiens, UniProt Q13255); experiment: Antagonist activity at human mGluR1a expressed in CHO cells assessed by measuring intracellular calcium by FLIPR assay; assay type: functional, cell-based
Sequence of Metabotropic glutamate receptor 1 (Homo sapiens, UniProt Q13255) (Q13255 whole entry): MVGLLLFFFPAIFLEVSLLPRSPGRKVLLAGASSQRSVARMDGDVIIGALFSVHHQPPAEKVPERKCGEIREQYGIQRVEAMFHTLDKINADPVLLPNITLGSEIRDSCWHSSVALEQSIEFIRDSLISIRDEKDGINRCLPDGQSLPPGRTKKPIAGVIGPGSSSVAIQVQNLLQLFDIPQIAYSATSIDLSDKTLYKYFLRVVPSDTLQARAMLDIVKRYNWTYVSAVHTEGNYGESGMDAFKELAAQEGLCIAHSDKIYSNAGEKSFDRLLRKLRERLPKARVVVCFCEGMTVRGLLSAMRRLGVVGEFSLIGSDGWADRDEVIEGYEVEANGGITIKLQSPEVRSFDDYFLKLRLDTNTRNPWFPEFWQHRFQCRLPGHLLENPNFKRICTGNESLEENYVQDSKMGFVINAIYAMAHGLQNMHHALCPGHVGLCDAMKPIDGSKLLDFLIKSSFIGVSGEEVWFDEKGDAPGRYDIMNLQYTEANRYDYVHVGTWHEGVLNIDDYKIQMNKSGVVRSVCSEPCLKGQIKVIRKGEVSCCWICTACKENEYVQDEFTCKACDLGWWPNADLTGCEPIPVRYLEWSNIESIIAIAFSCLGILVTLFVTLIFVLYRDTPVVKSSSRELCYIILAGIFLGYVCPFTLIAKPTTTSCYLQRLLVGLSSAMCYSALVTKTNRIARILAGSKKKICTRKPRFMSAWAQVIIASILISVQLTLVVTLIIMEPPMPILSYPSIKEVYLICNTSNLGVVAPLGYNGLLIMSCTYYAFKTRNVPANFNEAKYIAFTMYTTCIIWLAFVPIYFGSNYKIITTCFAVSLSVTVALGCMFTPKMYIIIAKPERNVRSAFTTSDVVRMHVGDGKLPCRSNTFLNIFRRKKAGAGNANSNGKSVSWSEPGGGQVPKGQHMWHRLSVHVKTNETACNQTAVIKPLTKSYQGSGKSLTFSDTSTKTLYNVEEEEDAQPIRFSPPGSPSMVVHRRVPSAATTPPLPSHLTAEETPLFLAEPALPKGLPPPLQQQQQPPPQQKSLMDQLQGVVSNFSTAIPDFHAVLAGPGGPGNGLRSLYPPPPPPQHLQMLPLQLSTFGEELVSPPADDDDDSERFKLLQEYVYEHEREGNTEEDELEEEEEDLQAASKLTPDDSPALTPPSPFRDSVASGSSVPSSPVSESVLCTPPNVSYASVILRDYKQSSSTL

Sequence of Metabotropic glutamate receptor 1 (Rattus norvegicus, UniProt P23385) (P23385 whole entry): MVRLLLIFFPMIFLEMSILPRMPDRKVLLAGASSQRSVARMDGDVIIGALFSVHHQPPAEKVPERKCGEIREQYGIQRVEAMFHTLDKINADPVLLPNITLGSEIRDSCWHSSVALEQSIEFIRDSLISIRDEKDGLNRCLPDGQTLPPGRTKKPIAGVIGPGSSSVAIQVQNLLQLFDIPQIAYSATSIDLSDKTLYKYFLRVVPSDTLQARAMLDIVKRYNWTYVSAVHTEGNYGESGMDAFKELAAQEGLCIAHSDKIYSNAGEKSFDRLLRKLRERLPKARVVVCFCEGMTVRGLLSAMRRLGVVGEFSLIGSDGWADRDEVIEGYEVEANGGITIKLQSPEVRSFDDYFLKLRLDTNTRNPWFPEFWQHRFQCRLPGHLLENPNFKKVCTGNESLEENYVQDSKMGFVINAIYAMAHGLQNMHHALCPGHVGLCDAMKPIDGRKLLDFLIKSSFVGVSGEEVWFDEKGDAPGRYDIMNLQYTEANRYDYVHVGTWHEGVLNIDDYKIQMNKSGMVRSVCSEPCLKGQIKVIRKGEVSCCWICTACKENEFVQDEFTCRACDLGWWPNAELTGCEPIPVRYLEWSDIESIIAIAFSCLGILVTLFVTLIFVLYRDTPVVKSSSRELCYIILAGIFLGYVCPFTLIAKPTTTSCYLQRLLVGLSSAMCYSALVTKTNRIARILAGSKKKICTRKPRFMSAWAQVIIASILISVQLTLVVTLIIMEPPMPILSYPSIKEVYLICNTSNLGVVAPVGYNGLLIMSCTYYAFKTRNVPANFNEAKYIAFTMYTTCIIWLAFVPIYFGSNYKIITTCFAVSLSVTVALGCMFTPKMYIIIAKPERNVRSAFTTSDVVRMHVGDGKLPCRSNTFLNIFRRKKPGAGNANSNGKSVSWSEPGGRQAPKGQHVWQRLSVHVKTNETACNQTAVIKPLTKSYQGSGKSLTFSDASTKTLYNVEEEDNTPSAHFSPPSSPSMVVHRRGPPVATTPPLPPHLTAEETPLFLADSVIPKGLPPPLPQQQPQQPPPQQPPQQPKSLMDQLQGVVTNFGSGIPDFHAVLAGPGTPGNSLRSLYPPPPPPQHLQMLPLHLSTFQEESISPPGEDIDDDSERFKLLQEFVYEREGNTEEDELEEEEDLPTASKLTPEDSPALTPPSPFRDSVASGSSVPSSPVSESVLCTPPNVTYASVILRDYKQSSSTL

| Structure (SMILES) | Ki [1] [nM] | Activity [2] [%] | Tmax [5] [h] | AUC(0-t) at 6 h [6] [µM·h] | IC50 [8] [nM] | Cmax [9] [nM] | IC50 [10] [nM] | ED50 [3] [mg/kg] | Activity [4] [g] | MPE [7] [%] |
| --- | --- | --- | --- | --- | --- | --- | --- | --- | --- | --- |
| Cn1cnc2cnc3sc4c(=O)n(-c5ccc(Cl)cc5)cnc4c3c21 | 104 | 0.15 |  |  |  |  |  |  |  |  |
| Cc1ccc(-n2cnc3c(sc4ncc5sc(=S)[nH]c5c43)c2=O)cc1 | 1000 | -10 |  |  |  |  | 541 |  |  |  |
| C[C@@H]1COc2cnc3sc4c(=O)n(-c5ccc(Cl)cc5)cnc4c3c2N1 | 9.1 |  |  |  | > 1000 |  | 24.4 |  |  |  |
| Cc1ccc(-n2cnc3c(sc4ncc5cc[nH]c5c43)c2=O)cc1 | 16.9 |  | 0.5 | 0.035 | > 1000 | 71 |  |  |  |  |
| COc1ccc(-n2cnc3c(sc4ncc5cc[nH]c5c43)c2=O)cc1 | 28.6 |  | 2 | 1.32 | > 10000 | 394 |  |  | 6.6 | 39 |
| C[C@H]1COc2cnc3sc4c(=O)n(-c5ccc(Cl)cc5)cnc4c3c2N1 | 0.5 |  |  |  | > 1000 |  |  |  |  |  |
| Cc1ccc(-n2cnc3c(sc4ncc5cn[nH]c5c43)c2=O)cc1 | 17.8 | 5 |  |  |  |  | 16.8 |  |  |  |
| CSc1nc2c(cnc3sc4c(=O)n(-c5ccc(C)cc5)cnc4c32)s1 | 788 | -2 |  |  |  |  | 636 |  |  |  |
| Cc1ccc(-n2cnc3c(sc4ncc5sc(=O)[nH]c5c43)c2=O)cc1 | 1000 | -8 |  |  |  |  | 446 |  |  |  |
| O=c1c2sc3ncc4cn[nH]c4c3c2ncn1-c1ccc(Cl)cc1 | 19.6 | -12 |  |  |  |  |  |  |  |  |
| CNc1c(Br)cnc2sc3c(=O)n(-c4ccc(Cl)cc4)cnc3c12 |  |  |  |  |  |  | 5.9 |  |  |  |

Further compounds by falling Ki [1], results first:

| Ki [1] [nM] | Activity [2] [%] | Tmax [5] [h] | AUC(0-t) at 6 h [6] [µM·h] | IC50 [8] [nM] | Cmax [9] [nM] | IC50 [10] [nM] | Structure (SMILES) | ED50 [3] [mg/kg] | Activity [4] [g] | MPE [7] [%] |
| --- | --- | --- | --- | --- | --- | --- | --- | --- | --- | --- |
| 10.8 | -1.7 |  |  |  |  |  | O=c1c2sc3ncc4nc[nH]c4c3c2ncn1-c1ccc(Cl)cc1 |  |  |  |
| 7.9 |  | 0.5 | 1.93 | 10000 | 564 | 9.5 | COc1ccc(-n2cnc3c(sc4nccc(N(C)C)c43)c2=O)cc1 |  | 13.2 | 87 |
| 2.4 | 1.7 | 0.5 | 0.018 |  | 37 |  | O=c1c2sc3ncc4cc[nH]c4c3c2ncn1-c1ccc(Cl)cc1 |  |  |  |
| 1.5 |  | 2 | 8.43 | > 1000 | 2050 |  | C[C@H]1CNc2c(cnc3sc4c(=O)n(-c5ccc(Cl)cc5)cnc4c23)O1 |  | 7.7 | 44 |
| 1 |  | 2 | 1.56 | > 1000 | 467 |  | COc1ccc(-n2cnc3c(sc4ncc5c(c43)NCCO5)c2=O)cc1 | 8 | 8.5 | 50 |
| 0.6 |  |  |  | 609 |  |  | Cc1ccc(-n2cnc3c(sc4ncc5c(c43)NC[C@@H](C)O5)c2=O)cc1 |  |  |  |
| 0.5 |  | 1 | 0.077 | 702 | 70 |  | Cc1ccc(-n2cnc3c(sc4ncc5c(c43)NCCO5)c2=O)cc1 |  |  |  |
| 0.4 |  | 1 | 0.366 | > 1000 | 198 |  | O=c1c2sc3ncc4c(c3c2ncn1-c1ccc(Cl)cc1)NCCO4 | 5.1 | 11.8 | 73 |
| 0.3 |  |  |  | > 1000 |  | 2.4 | COc1ccc(-n2cnc3c(sc4ncc5c(c43)NC[C@@H](C)O5)c2=O)cc1 |  |  |  |
| 0.2 |  | 0.5 | 5.19 | > 1000 | 1420 |  | C[C@@H]1CNc2c(cnc3sc4c(=O)n(-c5ccc(Cl)cc5)cnc4c23)O1 |  | 10.9 | 68 |
